Measurements taken from patent US10960088B2, “Macrocycles, cobalt and iron complexes of same, and methods of making and using same” (The Research Foundation for The State University of New York, priority 2013, dated 2021).

Legend:
[1] = CEST MR phantom imaging on 4.7 T scanner; conditions: 4 mM complex, pH 7.4-7.5, 37° C.; for % CEST: 20 mM HEPES, 100 mM NaCl, 4.7 T MRI scanner
Method: CEST MR images were acquired at 4.7 Tesla preclinical MR scanner using a 35 mm transceiver coil (ParaVision 3.0.2, Bruker Biospin, Billerica, Mass.) as detailed elsewhere. Two spoiled gradient-echo images (TE/TR=2.1/5010 ms, flip angle=90 deg) were acquired at 37° C. after employing a pulse train comprised of five Gauss pulses ([…] for 1 second each, interpulse delay of 200 μs) applied symmetrically about the bulk water resonance.
Image processing was carried out using in-house software algorithms developed in MATLAB (MathWorks, Natick, Mass.). Each image was normalized to the mean intensity of the buffer/salt phantom, and the mean signal intensity of each compound was sampled. The percent change in signal, or CEST effect (CE), was calculated as: CE=(1−SIon/SIoff)*100%, where SIon and SIoff represent the mean signal intensity of each sample with the pre-saturation pulse applied on- and off-resonance of the exchangeable protons, respectively. CEST images (FIGS. 14, 15) were calculated by determining CE on a pixel-by-pixel basis in MATLAB. To improve visualization of the CEST effect, images were filtered with a spatial averaging filter (kernel size=5×5), background noise was removed using a binary mask of the samples, and a ‘hotiron’ color lookup table was applied. […] Imaging parameters for the FID-FISP acquisition include: matrix=128×128, field of view=3.2×3.2 cm, TE/TR=1.5/3.0 ms, flip angle=90, number of repetitions=20. Processing was carried out as above with the exception that the 20 repetition image datasets were averaged together prior to normalization by the buffer signal intensity. The experiment was repeated with three separate preparations of [Co(CCRM)]^2+.
CEST images were acquired on a 4.7 Tesla preclinical MR scanner using a 35 mm radiofrequency coil and the ParaVision 3.0.2 research platform (Bruker Biospin, Billerica, Mass.). A pair of gradient-echo MR images were acquired at either 37° C. with a pre-saturation pulse train comprised of five 1 second Gauss pulses (12 μT, 200 μs interpulse delay) applied symmetrically about the bulk water resonance (+/−135 ppm). Other pertinent acquisition parameters include: echo time/repetition time=2.1/5010 ms, flip angle=90 deg, acquisition matrix=160×160, slice thickness=2 mm, field of view=32×32 mm, averages=1.
To determine the CEST effect, each image was normalized to the signal intensity of the buffer and salt-only phantom and the normalized image intensity of each phantom was sampled using commercially available software (Analyze 7.0, AnalyzeDirect Inc., Overland Park, Kans.). The percent loss of signal due to […] exchange was calculated using the following equation: % CEST=1−SIon/SIoff, eq. 9 where SIon and SIoff are the image intensities of each sample acquired with on-resonance and off-resonance pre-saturation pulses, respectively. To create the CEST image (FIG. 46), raw k-space data was zero-filled to a 512×512 matrix, reconstructed to spatial domain, filtered with a spatial low-pass filter (kernel size: 11×11) to improve signal-to-noise, and then normalized by image intensity of the buffer and salt-only phantom. The % CEST effect was calculated pixel-by-pixel using the normalized on/off resonance image pair in MATLAB (MathWorks, Natick, Mass.). Phantoms in the CEST image were isolated using binary masking techniques, and a “hot-iron” pseudocolor lookup table was applied to enhance perceptual contrast between samples.

[2] = Dissociation of complex over time monitored by 1H NMR; type: physicochemical; conditions: for % Dissociation Anions / % Dissociation Acidic: 10 mM Co^II complex; for % Dissociation Anions: 0.40 mM Na2HPO4, 25 mM K2CO3, 100 mM NaCl, pD 7.5-7.9, 12 hours at 37° C.; for % Dissociation Acidic: pD 3.5-3.9, 100 mM NaCl, 12 hours at 37° C.; for dissociation in presence of phosphate and carbonate (in words) / dissociation under acidic conditions (in words): 10 mM complex, 100 mM NaCl; for dissociation in presence of phosphate and carbonate (in words): 0.40 mM Na2HPO4, 25 mM K2CO3, pD 7.5-7.9, 12 hrs at 37° C.; for dissociation under acidic conditions (in words): D2O, pD 3.5-3.9, 1 hr vs 12 hrs (NOPE 4 hrs) at 37° C.
Method: Dissociation of the Co^II complexes was monitored via ^1H NMR spectroscopy of samples incubated at 37° C. over a period of 12 hours. To monitor acid dissociation, samples contained 10 mM Co^II complex, 100 mM NaCl, and 3-5 mM 3-(trimethylsilyl)-1-propanesulfonic acid sodium salt as a standard at pD 3.5-3.9. To assess the complexes in the presence of biologically relevant anions, solutions contained 10 mM Co^II complex, 100 mM NaCl, 0.40 mM Na2HPO4, 25 mM K2CO3, and 5 mM 3-(trimethylsilyl)-1-propanesulfonic acid sodium salt as a standard. Generally, 1024 transients were collected for each spectrum. […]

[3] = Effective magnetic moment in solution from magnetic susceptibility (NMR); type: physicochemical; conditions: for μeff: 5 mM Co^II complex in D2O; for magnetic moment: 25° C. in D2O
Method: The effective magnetic moment (μeff) was calculated by using a previously known method. 5 mM Co^II complex and 5% t-butanol by volume was placed in a NMR insert while the outer NMR tube contained 5% by volume t-butanol in D2O. The μeff was calculated at 298 K (T) and monitored over a period of 72 hours using the following approach.
The mass susceptibility of solute (χg) was calculated by obtaining the observed frequency shift of the reference (Δf) in Hz, the spectrometer frequency (f) in Hz, the mass of the substance per cm^3 of solution (m), and the mass susceptibility of solvent D2O (χ0=−0.6466×10^−6 cm^3/g). The last term is neglected due to the minimal contribution to mass susceptibility of solute. The molar susceptibility (χm) is the product of χg multiplied by the molecular weight of the Co^II complex.
The effective magnetic moment was calculated by using a previously known method. In a typical experiment, oxygen-free solution of 8-20 mM [Co(TPT)]^2+ in deuterium oxide, pD 7.0, containing 5% tert-butanol by volume was placed in an NMR tube, while a reference solution of 5% tert-butanol (v/v) in deuterium oxide, pD 7.0, was placed into NMR tube insert. All solutions of [Co(TPT)]^2+ were purged with argon and kept in the absence of air. The effective magnetic moment (μeff) was calculated at 298 K (T) using the following equations 7-8. In these equations the mass susceptibility of solute (χg) was calculated by obtaining the observed frequency shift of the reference (Δf) in Hz, the spectrometer frequency (f) in Hz, the mass of the substance per cm^3 of the solution (m), and the mass susceptibility of deuterium oxide (χ0=−0.6466×10^−6 cm^3/g). The last term in eq. SI is neglected due to the minimal contribution to mass susceptibility of solute. The molar susceptibility (χm) is the product of χg multiplied by the molecular weight of the [Co(TPT)]Cl2 complex. Reported value of the effective magnetic moment was obtained by averaging of three independent experiments. χg=(−3Δf)/(4πfm)+χ0+[χ0(d0−ds)]/m eq. 7 μeff=2.84(χmT)^1/2 eq. 8

NC(=O)CN1CCCN(CC(N)=O)CCN(CC(N)=O)CCCN(CC(N)=O)CC1.[Co+2] [[Co(CCRM)]^2+]
% CEST, peak at 95 ppm ([1]; peak at 95 ppm, 4.7 T): 5% | % CEST, peak at 112 ppm ([1]; peak at 112 ppm, 4.7 T): 8% | % Dissociation Anions [2]: 5% | % Dissociation Acidic [2]: 95% | dissociation in presence of phosphate and carbonate (in words) [2]: doesn't dissociate | dissociation under acidic conditions (in words) [2]: doesn't dissociate | dissociation under acidic conditions within the first hour ([2]; pD 3.5-3.9, 37° C., first hour): 95% | μeff [3]: 4.6 µB | magnetic moment [3]: 4.6 μB

NC(=O)CN1CCOCCOCCN(CC(N)=O)CCOCC1.[Co+2] [[Co(NOPE)]^2+]
% CEST [1]: 12% | % Dissociation Anions [2]: <1% | % Dissociation Acidic [2]: 16% | dissociation in presence of phosphate and carbonate (in words) [2]: doesn't dissociate | dissociation under acidic conditions (in words) [2]: doesn't dissociate | μeff [3]: 4.1 µB | magnetic moment [3]: 4.1 μB

NC(=O)CN1CCN(CC(N)=O)CCN(CC(N)=O)CCN(CC(N)=O)CC1.[Co+2] [[Co(TCMC)]^2+]
% CEST [1]: 12% | % Dissociation Anions [2]: 2% | % Dissociation Acidic [2]: 7% | dissociation in presence of phosphate and carbonate (in words) [2]: doesn't dissociate | dissociation under acidic conditions (in words) [2]: doesn't dissociate | μeff [3]: 4.5 µB | magnetic moment [3]: 4.5 μB

NC(=O)CN1CCN(CC(N)=O)CCN(CC(N)=O)CC1.[Co+2] [[Co(TCMT)]^2+]
% CEST [1]: 8% | % Dissociation Anions [2]: 5% | % Dissociation Acidic [2]: 1% | dissociation in presence of phosphate and carbonate (in words) [2]: doesn't dissociate | dissociation under acidic conditions (in words) [2]: doesn't dissociate | μeff [3]: 5.2 µB | magnetic moment [3]: 5.2 μB
